Patent US9012403B2, “Peptides as active agents to stabilize biological barriers” (XiberScience GmbH, priority 2010, dated 2015)
Marks after values point to notes of the source that are not given here.

Key:
GTP-bound RhoA [1] = assay: GTP-associated active RhoA in Caco-2 membrane fraction (western blot); type: cell-based
Procedure: (§1) To measure the GTP-associated active RhoA, the following cell lines were used: Caco-2, ECV304 and HpMec. All cells were grown at standard conditions (37° C., 5% CO2 and 95% rH). 4 h before the experiment, cells were starved by serum withdrawal. To induce GEF-activity, cells were stimulated with thrombin, LPS or PMA for the indicated time in presence or absence of 50 μg/ml XIB1-a or XIB1-b. After stimulation, membrane fractions were prepared by using the commercial available “Compartemental Protein Extraction Kit” from Biochain Institutes. Membrane fractions were prepared according to the manufacturer instructions. The membrane fraction was separated on 15% polyacrylamide gel according to standard procedures of gel electrophoresis. The gels were afterwards blotted on a nitrocellulose membrane according to standard procedures of western blotting. GTP-bound RhoA was detected using RhoA-GTP monoclonal antibody from NewEast Inc. in a dilution of 1:5000. Protein bands were analyzed with the Dolphin-1D Gel analysis system (Wealtec).

GTP-bound RhoA [2] = assay: GTP-associated active RhoA in ECV304 membrane fraction (western blot); type: cell-based
Procedure: as §1

LPS induced lung injury = assay: LPS induced lung injury, bronchoalveolar lavage; type: in vivo; details: mice; for effect on barrier function in the LPS-inhalation model (neutrophils and albumin in BALF): equal in groups treated intraperitoneally and intratracheally; for counts of neutrophils in the BALF (mean +/ SD) / albumine content of BALFs (mean +/ SD): n = 20
Procedure: Male C57Bl/6 Mice (Charles River, Germany) were kept at the animal facility of the Medical University of Vienna, feed with standard diet and water was provided ad libitum. All interventions were performed according to the guide lines of AAALAC (Association for Assessment and Accreditation of Laboratory Animal Care). All experiment were approved by the Ethic committee of the Medical University of Vienna. Mice were anesthetized with isoflouran and treated with 100 ng of LPS (E. coli O55:B5, Sigma Aldrich) intranasally. XIB1-a or XIB1-b was applied either intra-peritoneally (2×2 mg/kg) or via inhalation (2×4 mg/kg), first application was performed concomitantly with LPS administration, the second application was performed 1 h after the LPS inhalation.
The trachea was exposed through a midline incision and canulated with a sterile 20-gauge catheter (BD Venflon™, Becton Dickinson Infusion Therapy, Helsingborg, Sweden). Bilateral broncho-alveolar lavage fluid (BALF) was gained by instilling two 0.5 ml aliquots of sterile saline. Approximately 0.9-1 ml BALF was retrieved per mouse. Total cell numbers were counted from each sample using a hemo-cytometer (Türck chamber), BALF differential cell counts were done on cytospin preparations stained with Giemsa. For protein measurements, BALF was diluted 1:2 in buffer containing 300 mM NaCl, 30 mM Tris, 2 mM MgCl2, 2 mM CaCl2, and Pepstatin A, Leupeptin and Aprotinin (all 20 ng/ml; pH 7.4). Protein levels in BALF were measured using the BCA protein kit according to the manufacturer's instructions (Pierce, Rockford, Ill.).
In addition, the same set-up as described above was used for comparing the impact of XIB1-b compared to Bβ15-42 (PLoS ONE (2009), 4(4): e5391), a peptide derived from fibrin having the sequence […] (SEQ ID NO: 41). Bβ15-42 was added in the same manner as XIB1-b. Again, protein content and cell count of BALF was measured.

GTP-bound RhoA [3] = assay: GTP-associated active RhoA in HpMec membrane fraction (western blot); type: cell-based; details: HpMec
Procedure: as §1

GEF = assay: GEF-activity in membrane fractions of ECV304 cells (RhoGEF Exchange Assay); type: cell-based
Procedure: To measure the GEF-inhibitory effect, the following cell lines were used: Caco-2 (epithelial cells from adeno-carcinoma), ECV304 (epithelial cells from bladder carcinoma) and HpMec (endothelial cells, immortalized pulmonary micro-vascular cells). All cells were grown at standard conditions (37° C., 5% CO2 and 95% relative humidity (rH)). Culture Medium used for Caco-2: DMEM+1 mM sodium pyruvate+20% FCS+1% Penicillin Streptomycin; for ECV 304: RPMI 1640+10% FCS+1% Penicillin Streptomycin; and for HpMec: IMDM+25 mM Hepes+10% Human Serum+1% Penicillin Streptomycin+1% L-Glutamine+ECGS/Heparin 2 ml. 4 h before the experiment, cells were starved by serum withdrawal. To induce GEF-activity, cells were stimulated with thrombin, lipopolysaccharide (LPS) or PMA for the indicated time in presence or absence of 50 μg/ml XIB1-a or XIB1-b. After stimulation, membrane fractions were prepared by using the commercial available “Compartemental Protein Extraction Kit” from Biochain institutes. Membrane fractions were prepared according to the manufacturer instructions. GEF-activity in membrane lysates was determined by using “RhoGEF Exchange Assay Biochem Kit” from Cytoskeleton Inc. according to manufacturer instructions. GEF-activity was measured as fluorescence at using the Fluoroskan Ascent FL 2.6 from Thermo Electron Corporation. The excitation Filter wavelength was set at 355 nm and the emission filter wavelength at 460 nm.

[4] = CaCo-2, PMA 1 μg/ml, 1 min, with or without peptide 50 μg/ml
[5] = CaCo-2, PMA 1 μg/ml, 5 min, with or without peptide 50 μg/ml
[6] = CaCo-2, no stimulus, 1 min, peptide 50 μg/ml
[7] = CaCo-2, no stimulus, 5 min, peptide 50 μg/ml
[8] = ECV 304, LPS 100 μg/ml, 1 min, with or without peptide 50 μg/ml
[9] = ECV 304, LPS 100 μg/ml, 5 min, with or without peptide 50 μg/ml
[10] = ECV 304, Thrombin 1 U/ml, 1 min, with or without peptide 50 μg/ml
[11] = ECV 304, Thrombin 1 U/ml, 5 min, with or without peptide 50 μg/ml
[12] = ECV 304, no stimulus, 1 min, peptide 50 μg/ml
[13] = ECV 304, no stimulus, 5 min, peptide 50 μg/ml
[14] = Thrombin 1 U/ml, 1 min, with or without peptide 50 μg/ml
[15] = Thrombin 1 U/ml, 5 min, with or without peptide 50 μg/ml
[16] = no stimulus, 1 min, peptide 50 μg/ml
[17] = no stimulus, 5 min, peptide 50 μg/ml
[18] = 6 h after LPS administration, intraperitoneal application (2×2 mg/kg)
[19] = 6 h after LPS administration, intratracheal application

Row | Sequence | GTP-bound RhoA, relative values compared to unstimulated control (Mean) (GTP-bound RhoA [1]; [4]) | GTP-bound RhoA, relative values compared to unstimulated control (Mean) (GTP-bound RhoA [1]; [5]) | GTP-bound RhoA, relative values compared to unstimulated control (Mean) (GTP-bound RhoA [1]; [6]) | GTP-bound RhoA, relative values compared to unstimulated control (Mean) (GTP-bound RhoA [1]; [7]) | GTP-bound RhoA, relative values compared to unstimulated control (Mean) (GTP-bound RhoA [2]; [8]) | GTP-bound RhoA, relative values compared to unstimulated control (Mean) (GTP-bound RhoA [2]; [9]) | GTP-bound RhoA, relative values compared to unstimulated control (Mean) (GTP-bound RhoA [2]; [10]) | GTP-bound RhoA, relative values compared to unstimulated control (Mean) (GTP-bound RhoA [2]; [11]) | GTP-bound RhoA, relative values compared to unstimulated control (Mean) (GTP-bound RhoA [2]; [12]) | GTP-bound RhoA, relative values compared to unstimulated control (Mean) (GTP-bound RhoA [2]; [13]) | effect on barrier function in the LPS-inhalation model (neutrophils and albumin in BALF) (LPS induced lung injury) | GTP-bound RhoA, relative values compared to unstimulated control (Mean) (GTP-bound RhoA [3]; [14]) | GTP-bound RhoA, relative values compared to unstimulated control (Mean) (GTP-bound RhoA [3]; [15]) | GTP-bound RhoA, relative values compared to unstimulated control (Mean) (GTP-bound RhoA [3]; [16]) | GTP-bound RhoA, relative values compared to unstimulated control (Mean) (GTP-bound RhoA [3]; [17]) | GEF-activity, relative values compared to unstimulated control (Mean) (GEF; [8]) | GEF-activity, relative values compared to unstimulated control (Mean) (GEF; [9]) | GEF-activity, relative values compared to unstimulated control (Mean) (GEF; [10]) | GEF-activity, relative values compared to unstimulated control (Mean) (GEF; [11]) | GEF-activity, relative values compared to unstimulated control (Mean) (GEF; [12]) | also measured
1 | GRRPGGASGG (/note=“Description of artificial sequence cingulin-derived peptide XIB1-a”) | 1.4* | 1.3* | 1 | 1 | 1.6* | 1.7* | 2.1* | 1.9* | 1 | 1 | beneficial effect | 2.1* | 1.3* | 1 | 1 | 1.7* | 1.3* | 2.5* | 1.5* | 1 | GEF-activity, relative values compared to unstimulated control (Mean) (GEF; [13]): 1
2 | GRRPLGGISGG (/note=“Description of artificial sequence cingulin-derived peptide XIB1-b”) | 1.4* | 1.3* | 1 | 1 | 1.6* | 1.7* | 2.1* | 1.9* | 1 | 1 | beneficial effect | 2.1* | 1.3* | 1 | 1 | 1.7* | 1.3* | 2.5* | 1.5* | 1 | counts of neutrophils in the BALF (mean +/ SD) (LPS induced lung injury; comparison with Bβ15-42 (Table 6), 6 h after LPS, intratracheal plus intraperitoneal application): 15 +/− 15 neutrophils/ml (× 10^3); albumine content of BALFs (mean +/ SD) (LPS induced lung injury; [18]): 120 ± 12 µg/mL; counts of neutrophils in the BALF (mean +/ SD) (LPS induced lung injury; [18]): 25 +/− 22 neutrophils/ml (× 10^3); albumine content of BALFs (mean +/ SD) (LPS induced lung injury; [19]): 98 ± 20 µg/mL; counts of neutrophils in the BALF (mean +/ SD) (LPS induced lung injury; [19]): 28 +/− 23 neutrophils/ml (× 10^3); GEF-activity, relative values compared to unstimulated control (Mean) (GEF; [13]): 1
